From patent US5352599A, “Co-enzyme-independent L-sorbosone dehydrogenase of gluconobacter oxydans: isolation, characterization, and cloning and autologus expression of the gene” (Hoffmann-La Roche Inc., priority 1988, dated 1994)

Assays:
[1] = target: T1, membrane-bound L-sorbosone dehydrogenase from Gluconobacter oxydans IFO 12258, purified, coenzyme independent (Gluconacetobacter liquefaciens, UniProt Q44091); assay: L-sorbosone dehydrogenase enzyme assay (DCIP reduction at 600 nm, 25° C.); assay type: biochemical
T1 construct: endogenous in cells; host or cells: Gluconobacter oxydans IFO 12258 (enzyme isolated from the strain itself)
T1 sequence (Q44091 1-449): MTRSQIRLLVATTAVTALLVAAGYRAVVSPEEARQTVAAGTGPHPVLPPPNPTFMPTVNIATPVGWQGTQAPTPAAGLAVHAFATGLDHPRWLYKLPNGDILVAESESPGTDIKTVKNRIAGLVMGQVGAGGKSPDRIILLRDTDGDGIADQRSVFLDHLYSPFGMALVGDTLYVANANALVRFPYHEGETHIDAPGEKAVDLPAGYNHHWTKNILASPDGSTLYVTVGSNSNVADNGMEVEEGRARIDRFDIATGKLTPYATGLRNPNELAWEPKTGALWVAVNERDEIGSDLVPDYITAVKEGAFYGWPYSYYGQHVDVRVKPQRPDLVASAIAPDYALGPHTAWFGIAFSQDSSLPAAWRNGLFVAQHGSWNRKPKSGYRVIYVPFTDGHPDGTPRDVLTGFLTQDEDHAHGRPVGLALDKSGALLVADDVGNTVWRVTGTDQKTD
Procedure: (§1) Enzyme assay was performed at 25° C. by measuring the decrease of absorbance at 600nm of DCIP spectrophotometrically. One unit of enzyme activity was defined as the amount of enzyme which catalyzed the reduction of 1 μmole of DCIP per minute.
(§2) The extinction coefficient of DCIP at pH 7.0 was taken as 9.45mM^-1. The basal reaction mixture is shown below. The mixture was prepared just before the assay.
(§3) A cuvette with 1cm light path contained 0.4ml of basal mixture, 20μl of 10mM phenazine methosulphate, 10μl of enzyme solution and 20μl of 110mM L-sorbosone solution in a final volume of 0.45ml. A reference cuvette contains all components except the substrate. The reaction was initiated by the addition of the substrate. Enzyme activity was measured as the initial reduction rate of DCIP.

[2] = substrate: O=CC(=O)[C@@H](O)[C@H](O)[C@@H](O)CO; assay: as above; assay type: biochemical, Gluconobacter oxydans IFO 12258; conditions: other: pH7.0, purified enzyme, pH 7.0
Procedure: as §1, §2, §3

[N-]=[N+]=[N-].[Na+] [NaN3]
Relative activity (%) in presence of inhibitor ([1]; inhibitor 25 mM, L-Sorbosone as the substrate, None = 100): 89.4%

O=C(O)CI [ICH2 COOH, Monoiodoacetic acid]
inhibition of the enzyme (in words) [1]: moderately inhibited
inhibition at 10000 µM ([1]; read-out: Relative activity (%) in presence of inhibitor): 64.3%

B1: membrane-bound L-sorbosone dehydrogenase from Gluconobacter oxydans IFO 12258, purified, coenzyme independent (Gluconacetobacter liquefaciens) (protein)
chain: MTRSQIRLLVATTAVTALLVAAGYRAVVSPEEARQTVAAGTGPHPVLPPPNPTFMPTVNIATPVGWQGTQAPTPAAGLAVHAFATGLDHPRWLYKLPNGDILVAESESPGTDIKTVKNRIAGLVMGQVGAGGKSPDRIILLRDTDGDGIADQRSVFLDHLYSPFGMALVGDTLYVANANALVRFPYHEGETHIDAPGEKAVDLPAGYNHHWTKNILASPDGSTLYVTVGSNSNVADNGMEVEEGRARIDRFDIATGKLTPYATGLRNPNELAWEPKTGALWVAVNERDEIGSDLVPDYITAVKEGAFYGWPYSYYGQHVDVRVKPQRPDLVASAIAPDYALGPHTAWFGIAFSQDSSLPAAWRNGLFVAQHGSWNRKPKSGYRVIYVPFTDGHPDGTPRDVLTGFLTQDEDHAHGRPVGLALDKSGALLVADDVGNTVWRVTGTDQKTD
notes: endogenous in cells; host or cells: Gluconobacter oxydans IFO 12258 (enzyme isolated from the strain itself)
Km [2]: 16.7 mM
